Test results published in ChEMBL document CHEMBL1201862, “PubChem BioAssay data set” (2004).
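Where inhibition never reached the appropriate level, the endpoint shown equals the highest concentration tested. Otherwise, values were interpolated linearly from a five-concentration, 48-hour dose response in 96-well plates. The concentration for 50% growth inhibition is given as GI50.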 The source made the active and inactive calls. No stated cut-off is given here; in the data, active = GI50 up to about 1.1 µM and inactive = higher.

Columns and labels:
Experiment in all cases: NCI anticancer screen, dose series, 48 h
786-0 = test system: 786-0
BT-549 = test system: BT-549
EKVX = test system: EKVX
HCC 2998 = test system: HCC 2998
HCT-116 = test system: HCT-116
Hs-578T = test system: Hs-578T
M14 = test system: M14
NCI-H460 = test system: NCI-H460
NCI-H522 = test system: NCI-H522
OVCAR-3 = test system: OVCAR-3
OVCAR-8 = test system: OVCAR-8
PC-3 = test system: PC-3
RXF 393 = test system: RXF 393
SF-268 = test system: SF-268
SF-539 = test system: SF-539
SN12C = test system: SN12C
SR = test system: SR
SW-620 = test system: SW-620
T47D = test system: T47D
TK-10 = test system: TK-10

Measured: GI50

COc1ccc(-c2cc(-c3ccccc3)n(C3OC(COC(C)=O)C(OC(C)=O)C(OC(C)=O)C3OC(C)=O)c(=S)c2C#N)cc1 (stereo not given)
inactive: 786-0 3.44 µM | BT-549 12.4 µM | EKVX 14.9 µM | HCC 2998 22.3 µM | HCT-116 6.07 µM | Hs-578T 5.71 µM | M14 8 µM | NCI-H460 7.48 µM | NCI-H522 5.37 µM | OVCAR-3 11.4 µM | OVCAR-8 3.58 µM | PC-3 12.4 µM | RXF 393 11.2 µM | SF-268 14.2 µM | SF-539 3.88 µM | SN12C 9.79 µM | SR 13.6 µM | SW-620 13.9 µM | T47D 4.69 µM | TK-10 25.9 µM
